Source: PMC3832475, “Discovery of Dihydrochalcone as Potential Lead for Alzheimer’s Disease: In Silico and In Vitro Study” (PLoS ONE, 2013)

Target: T1, amyloid beta (Aβ40) (Homo sapiens, UniProt P05067)
T1 construct: gene APP; Aβ40 peptide (40 amino acids)
Experiment: ThT fluorescence fibrillization assay with purified Aβ[…]), end-point confirmed by TEM
Type: biochemical

T1 sequence (P05067 672-711 limits assumed): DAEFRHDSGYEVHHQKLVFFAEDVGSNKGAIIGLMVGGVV

`O=C(CCc1ccccc1)c1ccccc1` [Dihydrochalcone] was tested, and the IC50 was about 2.46 µM.
